pIC50: −log10 of the molar value. Read-outs that look alike come from different tables or passages of the source. Marks after values point to notes of the source that are not given here. Values belong to the compound of their own block, whether it stands above or below them.
What was measured:
[1] = target: T1, human glycine transporter 2 (GlyT2 or SLC6A5) (Homo sapiens, UniProt Q9Y345); assay: Inhibition of glycine transport currents, two-electrode voltage clamp in oocytes expressing WT GlyT2; type: cell-based; details: for % Maximal inhibition / pIC50: GlyT2; for pIC50: 30 μM glycine, 95% confidence interval in brackets; for Fold less potent than the corresponding L-isomer: GlyT2 IC50, D-isomer versus L-isomer
T1 construct: expressed in transfected cells; host or cells: Xenopus laevis oocytes injected with cRNA
T1 sequence (Q9Y345 1-797): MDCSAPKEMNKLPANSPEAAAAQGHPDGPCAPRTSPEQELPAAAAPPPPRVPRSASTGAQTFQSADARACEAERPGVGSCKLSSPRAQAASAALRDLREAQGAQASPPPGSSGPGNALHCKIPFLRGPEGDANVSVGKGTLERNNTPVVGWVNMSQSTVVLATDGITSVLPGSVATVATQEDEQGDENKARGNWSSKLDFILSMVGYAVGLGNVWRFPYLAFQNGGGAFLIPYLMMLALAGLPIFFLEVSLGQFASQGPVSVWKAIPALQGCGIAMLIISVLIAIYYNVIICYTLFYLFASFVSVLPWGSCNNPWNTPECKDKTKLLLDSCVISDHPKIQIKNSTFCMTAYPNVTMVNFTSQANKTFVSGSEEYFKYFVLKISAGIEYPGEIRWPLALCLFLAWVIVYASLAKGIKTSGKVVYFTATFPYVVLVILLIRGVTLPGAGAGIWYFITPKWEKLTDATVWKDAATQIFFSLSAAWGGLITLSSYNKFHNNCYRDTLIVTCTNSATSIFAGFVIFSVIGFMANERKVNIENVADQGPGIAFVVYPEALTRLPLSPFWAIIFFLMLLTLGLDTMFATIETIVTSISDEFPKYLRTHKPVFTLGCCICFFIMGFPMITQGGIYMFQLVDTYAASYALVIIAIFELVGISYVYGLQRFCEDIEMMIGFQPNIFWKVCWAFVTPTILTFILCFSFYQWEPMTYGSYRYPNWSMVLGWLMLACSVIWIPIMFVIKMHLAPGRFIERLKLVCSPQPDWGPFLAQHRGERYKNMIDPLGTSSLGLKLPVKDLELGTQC
Method: All N-acyl amino acids were synthesized as previously described ([13]). See Supporting Information for full details. Stock solutions of 10 mg ml^−1 of N-acyl amino acids were dissolved in dimethyl sulfoxide and diluted in frog Ringer's solution (96 mM NaCl, 2 mM KCl, 1 mM MgCl2, 1.8 mM CaCl2, 5 mM Hepes, pH 7.5) to desired concentrations. Final solutions contained 0.0025% dimethyl sulfoxide, a concentration that had no effect on transporter or receptor function.
Human GlyT2a WT complementary DNA was subcloned into the plasmid oocyte transcription vector. The amplified GlyT2/plasmid oocyte transcription vector product was then transformed in Escherichia coli cells and subsequently purified using the PureLink Quick Plasmid Miniprep Kit (Invitrogen by Life Technologies) and sequenced by the Australian Genome Research Facility (Sydney, Australia). The purified plasmid DNA was linearized via the restriction enzyme, SpeI (New England Biolabs [Genesearch]) for GlyT2a. Complementary RNAs were synthesized using the mMESAGE mMACHINE T7 kit (Ambion).
All work involving the use of animals was performed in accordance with the Australian Code of Practice for the Care and Use of Animals for Scientific Purposes. […] Stage V oocytes were isolated from the lobe via digestion with 2 mg ml^−1 collagenase A (Boehringer) at 26 °C for 1 h, and 20 ng of cRNA encoding GlyT2 was injected into each oocyte cytoplasm (Drummond Nanoinject; Drummond Scientific Co). The oocytes were then stored in frog Ringer's solution (96 mM NaCl, 2 mM KCl, 1 mM MgCl2, 1.8 mM CaCl2, 5 mM Hepes, pH 7.5), which was supplemented with 2.5 mM sodium pyruvate, 0.5 mM theophylline, 50 μg/ml gentamicin and […] tetracycline. The oocytes were stored at 18 °C for 3 to 5 days, until transporter expression was adequate for measurement using the two-electrode voltage clamp technique. Adequate transporter expression was defined as a ≥30 nA current following application of the glycine EC50.
(§1) GlyT2 is electrogenic, allowing activation to be measured via the two-electrode voltage clamp technique. Oocytes were voltage clamped at −60 mV, and whole-cell currents generated by the substrate were recorded with a Geneclamp 500 amplifier (Axon Instruments), digitized by a Powerlab 2/20 chart recorder (ADInstruments). LabChart version 8 software (ADInstruments, Axon Instruments) was used to visualize and process current traces. Recordings were performed in frog Ringer's solution. Oocytes were placed in an oval-shaped bath with a volume of 0.3 ml, with laminar flow around the oocyte at a rate of 12 ml min^−1 under gravity feed.
(§2) Each of the synthesized acyl-lysine compounds were first tested for their inhibitory activity by coapplying the analogs with 30 μM glycine and assessing their ability to reduce glycine transport currents. Increasing concentrations of each acyl-lysine inhibitor were applied to generate concentration response curves, from which IC50 values and percent maximal inhibition values were calculated.

[2] = target: T2, GlyT1 (Homo sapiens, UniProt P48067); assay: Selectivity test against GlyT1 transporter, two-electrode voltage clamp electrophysiology; type: cell-based
T2 construct: expressed in transfected cells
T2 sequence (P48067 1-706): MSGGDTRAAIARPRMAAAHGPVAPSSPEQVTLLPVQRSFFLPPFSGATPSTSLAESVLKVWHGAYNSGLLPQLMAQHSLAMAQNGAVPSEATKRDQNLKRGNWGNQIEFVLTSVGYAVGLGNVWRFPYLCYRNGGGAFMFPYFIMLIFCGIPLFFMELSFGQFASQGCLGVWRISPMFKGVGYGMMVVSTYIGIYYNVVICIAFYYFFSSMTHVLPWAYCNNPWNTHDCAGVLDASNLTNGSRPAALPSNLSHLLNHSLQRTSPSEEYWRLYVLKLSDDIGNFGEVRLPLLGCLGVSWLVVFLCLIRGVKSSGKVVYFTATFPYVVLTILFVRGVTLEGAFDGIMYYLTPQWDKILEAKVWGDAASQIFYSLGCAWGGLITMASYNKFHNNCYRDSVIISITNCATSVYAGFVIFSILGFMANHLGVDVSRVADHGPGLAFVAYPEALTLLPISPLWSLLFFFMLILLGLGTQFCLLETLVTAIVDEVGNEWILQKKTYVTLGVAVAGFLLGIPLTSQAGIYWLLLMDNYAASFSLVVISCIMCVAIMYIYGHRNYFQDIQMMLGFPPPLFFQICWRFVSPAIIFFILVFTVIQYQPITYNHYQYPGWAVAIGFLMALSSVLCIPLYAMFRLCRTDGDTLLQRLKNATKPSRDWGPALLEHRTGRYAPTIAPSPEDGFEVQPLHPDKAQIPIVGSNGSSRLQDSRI
Excerpt: The lipid inhibitors described previously contain 18 carbon acyl tails with a cis-double bond in the Δ9 position (i.e., nine bonds from the amide linkage to the amino acid head group), and penetration of the lipid tails into the allosteric site appears to be a critical determinant of inhibitory activity. To investigate the effect of tail length on GlyT2 inhibitory activity, we synthesized D- and L-lysine–based inhibitors with truncated tails. Double bonds were maintained in the Δ9 position, and overall chain lengths were reduced to C16 or C14 (C16ω7-Lys and C14ω5-Lys, respectively). The chemical structures of these new lipids are shown in Figure 1, and their synthesis and characterization are described in the Supporting information section. Newly synthesized acyl lysine analogs were then tested against GlyT2 and also tested for selectivity by testing against the closely related GlyT1 transporter using two-electrode voltage clamp electrophysiology (see Table 1 for inhibitory data).
as §1, §2

[3] = tested on: GlyT2; details: most potent small molecule GlyT2 inhibitor to date, reference not given; cited from earlier work
[4] = tested on: GlyT2 W563L; design: method as in PMID 31621581; details: mutagenesis data; cited from earlier work
[5] = target: T1, human glycine transporter 2 (GlyT2 or SLC6A5); details: cited from earlier work; for GlyT2 inhibitory activity in words: D-configuration head group
[6] = target: T2, GlyT1; design: method as in Mostyn et al., 2019 ([6]); details: previously published data, ref Mostyn et al., 2019 ([6]), cited from earlier work
[7] = tested on: rat model of neuropathic pain; details: cited from earlier work
[8] = cited from earlier work
[9] = cited from earlier work; remark: listed apart in the source
[10] = tested on: GlyT2 Y550L; design: method as in PMID 31621581; details: mutagenesis data; cited from earlier work
[11] = D-Head group stereochemistry, previously published data, ref Mostyn et al., 2019 ([6])
[12] = L-Head group stereochemistry, previously published data, ref Mostyn et al., 2019 ([6])

Structure (SMILES): CCC=CCCCCCCCCCCCC(=O)NC(CCCCN)C(=O)O [C16ω3-L-Lys]
% Maximal inhibition ([1]; L-Head group stereochemistry): 94.9 ± 1.6%
pIC50 ([1]; L-Head group stereochemistry): 7.97
pIC50 ([2]; L-Head group stereochemistry): < 5.52

Structure (SMILES): COc1cc(C(=O)NCC2(N(C)C)CCCC2)cc(OC)c1OCc1ccccc1 [ORG25543]
pIC50 [3]: 7.80

Structure (SMILES): CCCCCCCC/C=C\CCCCCCCC(=O)N[C@H](CCCCN)C(=O)O [C18ω9-D-Lys, oleoyl D-lysine]
Inhibition of GlyT2 W563L mutant [4]: not inhibited
% Maximal inhibition [5, 11]: 91.0 ^a %
pIC50 [5, 11]: 7.32
GlyT2 inhibitory activity in words [5]: retains potency
pIC50 ([6]; D-Head group stereochemistry): < 5.52
Analgesia [7]: produces analgesia
Side effects [7]: minimal side effects
Metabolic stability [8]: metabolically stable
Blood-brain barrier permeability [9]: blood–brain barrier permeable
Inhibition of GlyT2 Y550L mutant [10]: not inhibited

Structure (SMILES): CCCCCCCC/C=C\CCCCCCCC(=O)N[C@@H](CCCCN)C(=O)O [C18ω9-L-Lys, oleoyl-L-lysine]
Inhibition of GlyT2 W563L mutant [4]: not inhibited
% Maximal inhibition [5, 12]: 86.8 ^a %
pIC50 [5, 12]: 7.59
pIC50 ([6]; L-Head group stereochemistry): < 5.52
Inhibition of GlyT2 Y550L mutant [10]: not inhibited

Structure (SMILES): CCCCCCCCC=CCCCCCCCC(=O)NC(Cc1c[nH]c2ccccc12)C(=O)O [C18ω9-D-Trp]
% Maximal inhibition [5, 11]: 14.2 ^a %
IC50 ([5]; D-Head group stereochemistry, μM, previously published data, ref Mostyn et al., 2019 ([6])): > 10 µM
GlyT2 inhibitory activity in words [5]: inactive
pIC50 ([6]; D-Head group stereochemistry): < 5.00

Structure (SMILES): CCCCCCCCC=CCCCCCCCC(=O)NC(Cc1c[nH]c2ccccc12)C(=O)O [C18ω9-L-Trp]
% Maximal inhibition [5, 12]: 86.2 ^a %
pIC50 [5, 12]: 7.26
pIC50 ([6]; L-Head group stereochemistry): < 5.00

The next lines start with the values.

% Maximal inhibition ([1]; D-Head group stereochemistry): 96.2 ± 2.1%
pIC50 ([1]; D-Head group stereochemistry): 6.22
Fold reduced potency relative to C18ω9-D-Lys ([1]; GlyT2 IC50): 12 fold
Fold less potent than the corresponding L-isomer [1]: ninefold
pIC50 ([2]; D-Head group stereochemistry): < 5.52
Structure (SMILES): CCCCCC/C=C\CCCCCCCC(=O)N[C@H](CCCCN)C(=O)O [C16ω7-D-Lys]

% Maximal inhibition ([1]; D-Head group stereochemistry): 91.8 ± 8.6%
pIC50 ([1]; D-Head group stereochemistry): 6.16
Fold less potent than the corresponding L-isomer [1]: 65 fold
pIC50 ([2]; D-Head group stereochemistry): < 5.52
Structure (SMILES): CCC=CCCCCCCCCCCCC(=O)NC(CCCCN)C(=O)O [C16ω3-D-Lys]

% Maximal inhibition ([1]; L-Head group stereochemistry): 90.2 ± 2.1%
pIC50 ([1]; L-Head group stereochemistry): 7.18
pIC50 ([2]; L-Head group stereochemistry): < 5.52
Structure (SMILES): CCCCCCC=CCCCCCCCC(=O)NC(CCCCN)C(=O)O [C16ω7-L-Lys]

% Maximal inhibition ([1]; L-Head group stereochemistry): 96.2 ± 7.3%
pIC50 ([1]; L-Head group stereochemistry): 6.15
pIC50 ([2]; L-Head group stereochemistry): < 5.52
Structure (SMILES): CCCCC=CCCCCCCCC(=O)NC(CCCCN)C(=O)O [C14ω5-L-Lys]

% Maximal inhibition ([1]; L-Head group stereochemistry): 81.3 ± 5.1%
pIC50 ([1]; L-Head group stereochemistry): 7.17
pIC50 ([2]; L-Head group stereochemistry): < 5.52
Structure (SMILES): CCCCC=CCCCCCCCCCCCC(=O)NC(CCCCN)C(=O)O [C18ω5-L-Lys]

% Maximal inhibition ([1]; D-Head group stereochemistry): 87.6 ± 3.7%
pIC50 ([1]; D-Head group stereochemistry): 7.19
pIC50 ([2]; D-Head group stereochemistry): < 5.52
Structure (SMILES): CCCCC=CCCCCCCCCCCCC(=O)NC(CCCCN)C(=O)O [C18ω5-D-Lys]

% Maximal inhibition ([1]; D-Head group stereochemistry): 79.7 ± 3.6%
pIC50 ([1]; D-Head group stereochemistry): 5.86
pIC50 ([2]; D-Head group stereochemistry): < 5.52
Structure (SMILES): CCCC/C=C\CCCCCCCC(=O)N[C@H](CCCCN)C(=O)O [C14ω5-D-Lys]
